# In the supplement of paper PMC10307832:
# Key:
# Experiment in all cases: relative viability (nuclei count vs DMSO), 5 days (fraction); higher = more cells survive
# ALW-II-49-7 + AZD7762 = compound: Cc1ccc(C(=O)Nc2cccc(C(F)(F)F)c2)cc1Nc1cncc(C(N)=O)c1 [ALW-II-49-7] + NC(=O)Nc1cc(-c2cccc(F)c2)sc1C(=O)N[C@H]1CCCNC1 [AZD7762] (partner 0.2 µM)
# Procedure, shortened: (§1)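 Relative viability equals treated-well nuclei counts divided by vehicle-well nuclei counts. Counts came from 4× images of lung cancer cell lines grown in 1536-well plates for 5 days after pin-tool dosing on the day after seeding. Dosing used one drug alone or a fixed anchor-drug dose plus five library-drug doses (not always all listed) in √10 steps, and values are medians of duplicate plates.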
# Dasatinib + Navitoclax = compound: Cc1nc(Nc2ncc(C(=O)Nc3c(C)cccc3Cl)s2)cc(N2CCN(CCO)CC2)n1 [Dasatinib] + CC1(C)CCC(c2ccc(Cl)cc2)=C(CN2CCN(c3ccc(C(=O)NS(=O)(=O)c4ccc(N[C@H](CCN5CCOCC5)CSc5ccccc5)c(S(=O)(=O)C(F)(F)F)c4)cc3)CC2)C1 [Navitoclax] (partner 0.5 µM)
# Procedure, shortened: as §1
# Dasatinib + Pictilisib = compound: Cc1nc(Nc2ncc(C(=O)Nc3c(C)cccc3Cl)s2)cc(N2CCN(CCO)CC2)n1 [Dasatinib] + CS(=O)(=O)N1CCN(Cc2cc3nc(-c4cccc5[nH]ncc45)nc(N4CCOCC4)c3s2)CC1 [Pictilisib] (partner 1 µM)
# Procedure, shortened: as §1
# Dasatinib + Alpelisib = compound: Cc1nc(Nc2ncc(C(=O)Nc3c(C)cccc3Cl)s2)cc(N2CCN(CCO)CC2)n1 [Dasatinib] + Cc1nc(NC(=O)N2CCC[C@H]2C(N)=O)sc1-c1ccnc(C(C)(C)C(F)(F)F)c1 [Alpelisib] (partner 2 µM)
# Procedure, shortened: as §1
Cell Line,relative viability (ALW-II-49-7 + AZD7762; first compound 0.08 µM),relative viability (ALW-II-49-7 + AZD7762; first compound 0.253 µM),relative viability (ALW-II-49-7 + AZD7762; first compound 0.8 µM),relative viability (ALW-II-49-7 + AZD7762; first compound 2.53 µM),relative viability (ALW-II-49-7 + AZD7762; first compound 8 µM),relative viability (Dasatinib + Navitoclax; first compound 0.005 µM),relative viability (Dasatinib + Navitoclax; first compound 0.01581 µM),relative viability (Dasatinib + Navitoclax; first compound 0.05 µM),relative viability (Dasatinib + Navitoclax; first compound 0.1581 µM),relative viability (Dasatinib + Navitoclax; first compound 0.5 µM),relative viability (Dasatinib + Pictilisib; first compound 0.005 µM),relative viability (Dasatinib + Pictilisib; first compound 0.01581 µM),relative viability (Dasatinib + Pictilisib; first compound 0.05 µM),relative viability (Dasatinib + Pictilisib; first compound 0.1581 µM),relative viability (Dasatinib + Pictilisib; first compound 0.5 µM),relative viability (Dasatinib + Alpelisib; first compound 0.005 µM),relative viability (Dasatinib + Alpelisib; first compound 0.01581 µM),relative viability (Dasatinib + Alpelisib; first compound 0.05 µM),relative viability (Dasatinib + Alpelisib; first compound 0.1581 µM),relative viability (Dasatinib + Alpelisib; first compound 0.5 µM)
NCI-H460,0.567,0.863,0.663,0.665,0.456,0.828,0.912,0.815,0.563,0.217,0.195,0.102,0.208,0.189,0.104,0.286,0.179,0.159,0.122,0.0551
NCI-H2170,1.03,0.775,0.833,0.835,0.817,0.545,0.473,0.572,0.267,0.232,0.286,0.234,0.257,0.265,0.203,0.738,0.649,0.644,0.449,0.382
NCI-H727,0.495,0.68,0.611,0.716,0.591,0.404,0.266,0.186,0.139,0.143,0.33,0.267,0.258,0.209,0.176,0.453,0.375,0.397,0.219,0.234
NCI-H838,0.921,1.04,0.889,0.702,0.886,1.03,0.791,0.709,0.389,0.21,0.444,0.297,0.276,0.218,0.189,0.82,0.678,0.585,0.308,0.233
NCI-H1792,0.836,0.621,0.591,0.745,0.454,0.627,0.606,0.541,0.402,0.296,0.317,0.222,0.234,0.128,0.0699,0.73,0.431,0.532,0.389,0.153
H3255,0.938,1.06,0.874,0.801,0.574,0.542,0.527,0.388,0.187,0.115,0.474,0.446,0.342,0.234,0.152,0.68,0.621,0.63,0.434,0.24
EPLC-272H,0.169,0.251,0.278,0.248,0.198,1.32,1.06,1.39,0.959,0.473,0.312,0.354,0.276,0.221,0.147,1.08,0.913,1.02,0.777,0.244
NCI-H647,0.348,0.402,0.419,,0.29,0.983,0.731,0.392,0.307,0.152,0.258,0.308,0.182,0.11,0.122,0.779,0.419,0.319,0.166,0.146
